Several values for one entry are separate records, joined by “and”; a condition that tells them apart may be missing. Equal values may be shown once.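 Interpolation was linear, between the two tested concentrations surrounding the appropriate level; five concentrations were tested over 48 hours in 96-well plates. GI50 = concentration required for 50% inhibition of growth.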 Activity calls are given as the source filed them. Cut-off read from the data, not from the text of the source: active = GI50 up to about 1.1 µM and inactive = higher.
Experiments:
Experiment in all cases: growth of human tumour cells (NCI), 48 h
[1] = test system: SN12C
[2] = test system: SR
[3] = test system: SW-620
[4] = test system: MCF7
[5] = test system: COLO 205
[6] = test system: NCI-H522
[7] = test system: LOX IMVI
[8] = test system: MDA-MB-231
[9] = test system: EKVX
[10] = test system: RXF 393
[11] = test system: OVCAR-5
[12] = test system: PC-3
[13] = test system: HCT-116
[14] = test system: NCI-H23
[15] = test system: MDA-N
[16] = test system: RPMI-8226
[17] = test system: IGROV-1
[18] = test system: NCI-H226
[19] = test system: HOP-92
[20] = test system: SK-MEL-28
[21] = test system: CCRF-CEM
[22] = test system: NCI/ADR-RES
[23] = test system: ACHN
[24] = test system: KM12
[25] = test system: MOLT-4
[26] = test system: NCI-H460
[27] = test system: HT-29
[28] = test system: OVCAR-4
[29] = test system: SK-MEL-5
[30] = test system: M14
[31] = test system: OVCAR-3
[32] = test system: SF-295
[33] = test system: Hs-578T
[34] = test system: SNB-19
[35] = test system: 786-0
[36] = test system: UO-31
[37] = test system: UACC-62
[38] = test system: SK-MEL-2
[39] = test system: SK-OV-3
[40] = test system: HCT-15
[41] = test system: HOP-62
[42] = test system: U-251
[43] = test system: UACC-257
[44] = test system: SF-268
[45] = test system: CAKI-1
[46] = test system: MDA-MB-435
[47] = test system: K562
[48] = test system: TK-10
[49] = test system: SNB-75
[50] = test system: Malme-3M
[51] = test system: OVCAR-8
[52] = test system: A549
[53] = test system: SF-539
[54] = test system: DU-145
[55] = test system: HL-60
[56] = test system: T47D

## Nc1ncc2c(n1)-c1ccccc1OC2N1CCOCC1 (configuration not stated)
[1]
  GI50: > 100 µM (inactive)
[2]
  GI50: 52.7 µM (inactive)
[3]
  GI50: > 100 µM (inactive)
[4]
  GI50: > 100 µM (inactive)
[5]
  GI50: > 100 µM (inactive)
[6]
  GI50: 45.2 µM (inactive)
[7]
  GI50: > 100 µM (inactive)
[8]
  GI50: > 100 µM (inactive)
[9]
  GI50: 85.9 µM (inactive)
[10]
  GI50: > 100 µM (inactive)
[11]
  GI50: > 100 µM (inactive)
[12]
  GI50: > 100 µM (inactive)
[13]
  GI50: > 100 µM (inactive)
[14]
  GI50: > 100 µM (inactive)
[15]
  GI50: > 100 µM (inactive)
[16]
  GI50: > 100 µM (inactive)
[17]
  GI50: > 100 µM (inactive)
[18]
  GI50: > 100 µM (inactive)
[19]
  GI50: > 100 µM (inactive)
[20]
  GI50: > 100 µM (inactive)
[21]
  GI50: > 100 µM (inactive)
[22]
  GI50: > 100 µM (inactive)
[23]
  GI50: > 100 µM (inactive)
[24]
  GI50: > 100 µM (inactive)
[25]
  GI50: > 100 µM (inactive)
[26]
  GI50: > 100 µM (inactive)
[27]
  GI50: > 100 µM (inactive)
[28]
  GI50: > 100 µM (inactive)
[29]
  GI50: > 100 µM (inactive)
[30]
  GI50: > 100 µM (inactive)
[31]
  GI50: > 100 µM (inactive)
[32]
  GI50: > 100 µM (inactive)
[33]
  GI50: > 100 µM (inactive)
[34]
  GI50: > 100 µM (inactive)
[35]
  GI50: > 100 µM (inactive)
[36]
  GI50: > 100 µM (inactive)
[37]
  GI50: > 100 µM (inactive)
[38]
  GI50: > 100 µM (inactive)
[39]
  GI50: > 100 µM (inactive)
[40]
  GI50: > 100 µM
[41]
  GI50: > 100 µM (inactive)
[42]
  GI50: > 100 µM (inactive)
[43]
  GI50: > 100 µM (inactive)
[44]
  GI50: > 100 µM (inactive)
[45]
  GI50: > 100 µM (inactive)
[46]
  GI50: > 100 µM (inactive)
[47]
  GI50: > 100 µM (inactive)
[48]
  GI50: > 100 µM (inactive)
[49]
  GI50: 59.7 µM (inactive)
[50]
  GI50: > 100 µM (inactive)
[51]
  GI50: > 100 µM (inactive)
[52]
  GI50: > 100 µM (inactive)
[53]
  GI50: > 100 µM (inactive)
[54]
  GI50: > 100 µM (inactive)
[55]
  GI50: 44.5 µM (inactive)

## COc1cc(OC)c(OC)cc1/C=C\c1nccc2ccccc12
[2]
  GI50: 20.9 µM (inactive)
[3]
  GI50: 26.9 µM (inactive)
[5]
  GI50: 22.5 µM (inactive)
[9]
  GI50: 22.2 µM (inactive)
[10]
  GI50: 18.7 µM (inactive)
[11]
  GI50: 29.3 µM (inactive)
[12]
  GI50: 27.8 µM (inactive)
[13]
  GI50: 18.1 µM (inactive)
[14]
  GI50: 23.4 µM (inactive)
[15]
  GI50: > 10 µM (inactive)
[16]
  GI50: 18.7 µM (inactive)
[17]
  GI50: 28.5 µM (inactive)
[19]
  GI50: 15.3 µM (inactive)
[20]
  GI50: 29.3 µM (inactive)
[21]
  GI50: 76.2 µM (inactive)
[22]
  GI50: 31.2 µM (inactive)
[24]
  GI50: 15.1 µM (inactive)
[25]
  GI50: 16.1 µM (inactive)
[28]
  GI50: 29.1 µM (inactive)
[29]
  GI50: 15.2 µM (inactive)
[30]
  GI50: 16.7 µM (inactive)
[32]
  GI50: 24 µM (inactive)
[33]
  GI50: 28.3 µM (inactive)
[34]
  GI50: 18.5 µM (inactive)
[36]
  GI50: 16.8 µM (inactive)
[39]
  GI50: 32.8 µM (inactive)
[40]
  GI50: > 10 µM
[42]
  GI50: 24.9 µM (inactive)
[44]
  GI50: 23.3 µM (inactive)
[45]
  GI50: 22.5 µM (inactive)
[47]
  GI50: 28.9 µM (inactive)
[48]
  GI50: 27.8 µM (inactive)
[49]
  GI50: 23.9 µM (inactive)
[50]
  GI50: 33 µM (inactive)
[56]
  GI50: 24.2 µM (inactive)
[51]
  GI50: 23.2 µM (inactive)
[52]
  GI50: 25.6 µM (inactive)
[54]
  GI50: 16.3 µM (inactive)
[55]
  GI50: 18.7 µM (inactive)

## Nc1nc(Cl)c(/N=N/c2ccc(Cl)cc2)c(NCC2(CO)CC(OCc3ccccc3)C2)n1 (configuration not stated)
[23]
  GI50: 1.53 µM (inactive) and 1.73 µM (inactive)
[36]
  GI50: 2.92 µM (inactive) and 2.08 µM (inactive)
[45]
  GI50: 3.31 µM (inactive) and 1.82 µM (inactive)
[47]
  GI50: 4.98 µM (inactive) and 3.03 µM (inactive)
[49]
  GI50: 6.71 µM (inactive)
[50]
  GI50: 1.62 µM (inactive)
[56]
  GI50: 3.67 µM (inactive) and 3.15 µM (inactive)
[55]
  GI50: 3.63 µM (inactive) and 3.48 µM (inactive)

— ChEMBL document CHEMBL1201862, “PubChem BioAssay data set” (2004)
